Measurements taken from article PMC10675077, “Antimicrobial Properties of New Polyamines Conjugated with Oxygen-Containing Aromatic Functional Groups” (Molecules, 2023).

Experiments:
[1] = design: method as in PMID 37335019; conditions: 298 K, 0.15 mol/dm NaCl; error in last figure in parentheses; cited from earlier work
human Jurkat cell line = test: Cytotoxicity, flow cytometry viability assay with propidium iodide; format: cell-based; conditions: 24 h treatment, average of three experiments
How it was run: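 Jurkat cells in RPMI 1640 with 5% FCS exposed to a concentration range of compound or PBS for 24 h. Dead cells scored as PI-positive events (3.75 μM PI, 5 min, room temperature) by flow cytometry, 10,000 events per sample. IC50 obtained by curve fitting; triplicates.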

S. aureus = test: Checkerboard titration synergy, S. aureus; format: cell-based, Staphylococcus aureus; conditions: synergistic when FICI ≤0.5
Method: The combined antimicrobial activity of the test compounds with the antibacterial or antifungal control agents was performed under the same conditions used for the MIC determination and following the procedures described by Carton Herrán, Reis de Sá et al. and Zharkova et al.. For each experiment, 16 samples (4 rows × 4 columns) in a total volume of 0.5 mL were prepared in tubes using an array of combinations between the MIC value and 0 μg/mL of the compound to be tested in each row, and between the MIC value and 0 μg/mL of the reference drug in each column. In this way, a variety of mixtures with different concentrations of them alone or in combination was obtained. Briefly, 0.5 mL of a microorganism culture was added to each one of the samples, and after incubation for 24 h with shaking at the appropriate temperature (37 °C or 30 °C), the tubs were visually inspected, and the OD600 was measured. From this information, the fractional inhibitory concentration index (FICI) was calculated according to the formula FIC index = ([A]/[CMI A]) + ([B]/[CMI B]), where [A] and [B] are respective concentrations of tested polyamine and reference drug in their combination effectively inhibiting the growth of bacteria or yeast, and [MIC A] and [MIC B] are the individual MICs of the tested polyamine and reference drug when they are used alone. An interaction is considered synergistic when the FICI value is ≤0.5 [41, 42].
To confirm the data obtained in the checkerboard assay, 30 μL of a ten-fold dilution of the tubes containing concentrations of half of the MIC of each one of the compounds alone (polyamine to be tested and reference drug) and one fourth of the MIC of each one in combination were also spread in LB or SC-ura plates (according to the microorganism considered in each case) and incubated at 37 °C or 30 °C. The visualisation of these plates was performed after 24 or 48 h, respectively. All these experiments were carried out in triplicate.

E. coli = test: Lytic activity, time-kill (OD600), E. coli; format: cell-based, Escherichia coli; conditions: 5 times the MIC
Method: To determine if the compounds showing microbicidal activity induce cell lysis, the procedure described by Fleeman et al. was followed, with the modifications indicated below. The E. coli and S. aureus strains were grown as in the experiments described earlier. The cells corresponding to 1.5 units of OD600 were collected and resuspended in 1% BP after washing in the same medium. They were incubated in a final volume of 1 mL with concentrations 5 times higher than the MIC of the analysed compounds, and OD600 was monitored over time. Other antimicrobial compounds were also used in this study as controls. The experiments were performed in triplicate.

Row | Molecule | Stepwise protonation constant (log K), H2L + H ⇄ H3L [1] | Stepwise protonation constant (log K), H3L + H ⇄ H4L [1] | Stepwise protonation constant (log K), L + H ⇄ HL [1] | Stepwise protonation constant (log K), LH + H ⇄ H2L [1] | IC50, cytotoxicity on the human Jurkat cell line (human Jurkat cell line) | Synergy with Ampicillin (S. aureus) | Synergy with Ciprofloxacin (S. aureus) | Synergy with Doxycycline (S. aureus) | Synergy with Gentamicin (S. aureus) | Lytic activity (OD600 over time) (E. coli)
1 | Oc1ccc(CNCCN2CCNCc3cccc(n3)CNCC2)cc1 [Compound 7a] | 8.516 (8) | 7.341 (9) | 10.153 (9) | 9.473 (9) |  |  |  |  |  | 
2 | N^1-(benzo[d][1,3]dioxol-5-ylmethyl)-N^3-(2-((2-((3-((benzo[d][1,3]dioxol-5-ylmethyl)amino)propyl)amino)ethyl)(2-((3-(((2,3-dihydrobenzofuran-6-yl)methyl)amino)propyl)amino)ethyl)amino)ethyl)propane-1,3-diamine [Compound 4a] |  |  |  |  | 76.86 µg/mL |  |  |  |  | 
3 | Oc1ccccc1CNCCN1CCNCc2cccc(n2)CNCC1 [Compound 6a] | 7.92 (1) | 6.67 (2) | 9.93 (1) | 9.11 (1) |  | no synergy and - | no synergy and - | no synergy and - | no synergy and - | do not have a lytic effect
4 | c1cc2nc(c1)CNCCN(CCNCc1ccc3c(c1)OCO3)CCNC2 [Compound 5a, 2-(3,6,9-triaza-1(2,6)-pyridinacyclodecaphane-6-yl)-N-(benzo[d][1,3]dioxol-5-ylmethyl)ethan-1-amine] |  |  |  |  |  |  |  |  |  | do not have a lytic effect
